These are literature values, as cited in US8202840B2, “Enhanced ocular neuroprotection and neurostimulation” (Minu L.L.C., priority 2005, dated 2012).

In data set [1] the target is immunophilin FK 506-binding protein (FKBP) (Homo sapiens, UniProt P62942). Conditions: in vitro.
For data set [2] the following is noted: administered systemically.
For data set [3], the system named is Ganglion cells in the retina (RGC). Conditions: systemically administered.

Structures are written as SMILES.

Sequence of immunophilin FK 506-binding protein (FKBP) (P62942 whole entry): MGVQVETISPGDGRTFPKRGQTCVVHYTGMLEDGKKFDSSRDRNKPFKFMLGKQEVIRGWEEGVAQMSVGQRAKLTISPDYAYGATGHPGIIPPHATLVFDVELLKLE

Consider `C=CC[C@@H]1/C=C(\C)C[C@H](C)C[C@H](OC)[C@H]2O[C@@](O)(C(=O)C(=O)N3CCCC[C@H]3C(=O)O[C@H](/C(C)=C/[C@@H]3CC[C@@H](O)[C@H](OC)C3)[C@H](C)[C@@H](O)CC1=O)[C@H](C)C[C@@H]2OC` [tacrolimus, Tacrolimus], for which, under “chloroform”, the solubility in chloroform entry is listed as “very soluble”. For the same molecule, the solubility in ethanol result (ethanol) is given as “freely soluble”. The solubility in methanol result (methanol) is given as “very soluble”. The solubility in water result (water) is “practically insoluble”. In addition, the “binding to and inhibition of FKBP activity” value in data set [1] is “binds to and inhibits the activity”. Besides, the “renal and hepatic toxicity” value in data set [2] was “significant renal and hepatic toxicity”. Also, the “neuroprotection on RGC” value in data set [3] is “conferred neuroprotection on RGC”.
